Experimental data reported in patent US20060276464A1, “Diarylsulfone sulfonamides and use thereof” (Wyeth, priority 2005, published 2006).

Key:
[1] = molecular target: T1, SFRP-1 (Homo sapiens, UniProt Q8N474); experiment: Cell-based assay for in vitro measurement of SFRP-1/SARP2 antagonist activity (U2OS cells co-transfected with 16x TCF-tk-Luciferase reporter, Wnt and hSFRP-1);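 further: U2OS cells co-transfected with a TCF-tk luciferase reporter, a Wnt vector, hSFRP-1 or empty vector and CMV-βgal, luciferase luminescence read in cell lysates alongside βgal activity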
T1 sequence (Q8N474 32-314): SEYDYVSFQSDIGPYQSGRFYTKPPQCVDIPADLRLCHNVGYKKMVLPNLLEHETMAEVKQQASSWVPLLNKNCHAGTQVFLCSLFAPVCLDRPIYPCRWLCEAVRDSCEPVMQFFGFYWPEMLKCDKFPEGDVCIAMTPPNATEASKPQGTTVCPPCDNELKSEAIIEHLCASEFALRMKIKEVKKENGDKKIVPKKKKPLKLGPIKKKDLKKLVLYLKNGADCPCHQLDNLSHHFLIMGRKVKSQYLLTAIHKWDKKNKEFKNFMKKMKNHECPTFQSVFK

[2] = molecular target: T1, SFRP-1; experiment: Fluorescence polarization binding assay (competitive displacement of a probe compound from SFRP-1); conditions: fluorescence anisotropy, 45 nM SFRP-1, 20 nM probe;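 further: test compound competes with a fluorescent probe held by SFRP-1, seen as a drop in probe anisotropy after incubation in darkness, with anisotropy as function of rising compound dose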

Q: What does the source list for CCOc1ccc2ccccc2c1C(=O)N1CCC(NS(=O)(=O)c2cc(S(=O)(=O)c3ccccc3)ccc2C(C)C)CC1 [Example 813, N-[1-(2-Ethoxy-1-naphthoyl)piperidin-4-yl]-2-isopropyl-5-(phenylsulfonyl)benzenesulfonamide]?
A: EC50 [1]: 674 nM; fold induction at 10 µM ([1]; U2OS, read-out: Fold Induction with SFRP-1, U2OS cells, single dose 10 μM, luciferase reporter, fold induction over SFRP-1 control): 3.9; IC50 [2]: 400 nM; melting point: 164 to 166 °C
